Starred links: 1 amine or outer side, 2 acyl side, 3 side chain; linkers in the order of their positions; H or OH if unused. Non-standard residues stand in square brackets, D forms with d. Residues, ends and D or L forms follow the SMILES beside them. *: point of attachment. Azetidine3carboxylic = O=C(C1CN([*:1])C1)[*:2]; Pyrrolidine3carbonyl(3S) = O=C([C@H]1CCNC1)*; X6 = O=C(C1[C@H]2CC[C@H](C2)N1[*:1])[*:2]; X5 = NC12CC3CC(C1)CC(CC(=O)*)(C3)C2; dBta = N[C@H](Cc1csc2ccccc12)C(=O)O; dCit = NC(=O)NCCC[C@@H](N)C(=O)O; X7 = O=C([C@@]12CNC[C@@H]1C2)*; Ac4c(3-oxa) = NC1(C(=O)O)COC1; X1 = N[C@H]1CCC[C@H]1C(=O)*; dNle = CCCC[C@@H](N)C(=O)O; Nle = CCCC[C@H](N)C(=O)O; X4 = O=C([C@H]1CNCCO1)*; dAze = O=C(O)[C@H]1CCN1; X3 = NCC1(C(=O)*)CCC1
The molecules below were run against GHSR-1a (Homo sapiens (Human), UniProt Q92847) (assay: Agonistic activity for GHSR-1a, FLIPR calcium assay). Conditions: agonist activity assay, Flp In-CHO-GHSR Stable Pool cells, FLIPR calcium 6 kit; read-out: The activity (IC50) of polypeptide compounds for GHSR-1a.
Assay type: cell-based
From the text: The use of recombinant expression of GHSR provides several advantages; for example, the receptor can be expressed in a determined cell system, so that it is easier to distinguish between the reactions of the compounds with GHSR and the reactions with other receptors. For example, cell lines such as HEK293, COS7 and CHO that […] can be used to express GHSR, and the same cell lines without expression vectors are used as controls.
The activity of GHSR-1a can be measured using different techniques, for example, by detecting the change in the intracellular conformation of GHSR, the change in G-protein coupling activity, and/or the change in intracellular messengers. Techniques such as measuring intracellular Ca^2+ are preferably used to measure the activity of GHSR-1a. Examples of techniques known in the art that can be used to measure Ca^2+ include the use of FLIPR® calcium ion assay kits, among others. The FLIPR® calcium ion assay kits use a calcium ion sensitive indicator and a masking dye to ensure that a researcher carries out high-sensitivity fluorescent screening for G protein-coupled receptors, ion channels and other calcium ion sensitive targets. This experiment used FLIPR calcium 6 assay kits and FLIPR calcium 6-QF assay kits.
• a) Cell line: Flp In-CHO-GHSR Stable Pool; • b) Complete medium: F12K+10% fetal bovine serum+1×penicillin-streptomycin (PS)+600 μg/mL hygromycin B; • c) Cell seeding medium: F12K+10% fetal bovine serum. • d) Assay buffer: 1× HBSS+20 mM HEPES. • e) […] component A: Assay buffer and component A were left at room temperature (RT), 10 mL of buffer was added to component A, and the mixture was vortexed for 1-2 min and stored at −20° C.
• a) Compound stock solutions: the powders from in-house synthesis were made into 10 mM stock solutions in DMSO according to the standard protocol. • b) Compound storage: all compounds in DMSO were stored in room temperature desiccators for short-term storage (at most 4 months). The remaining compounds were left at −20 ° C. for long-term storage.
• a) Flp In-CHO-GHSR Stable Pool cells were cultured in complete medium. • b) The cells were placed in […] cell seeding medium in a 384-well cell culture plate (Corning, 3764) at 7k cells/well and cultured overnight at 37° C. with 5% CO2. • c) 20× component A was thawed at room temperature, diluted with assay buffer to 2×, and left at RT. • d) The Petri dish was taken out of the incubator and equilibrated at room temperature for 10 min. The medium was changed to […]. After the final wash, 20 μL of buffer was kept in each well, 20 μL of 2× component A was then added to each well, and the plate was incubated at 37° C. for 3-5 s. • e) 10 μL of 5× compound was added to the 384-well cell culture plate, and data collection was immediately performed using FLIPR Tetra.
• 1) Z′ factor=1−3×(SDMax+SDMin)/(MeanMax−MeanMin); • 2) CVMax=(SDMax/MeanMax)×100%; • 3) CVMin=(SDMin/MeanMin)×100%; • 4) S/B=Singal/Background; • 5) Calculation formula for IC50: • Y=Bottom+(Top−Bottom)/(1+10^((LogIC50−X)×HillSlope)) • X: log value of compound concentration; Y: Activation % or Inhibition %

Sequence of GHSR-1a (Q92847 whole entry): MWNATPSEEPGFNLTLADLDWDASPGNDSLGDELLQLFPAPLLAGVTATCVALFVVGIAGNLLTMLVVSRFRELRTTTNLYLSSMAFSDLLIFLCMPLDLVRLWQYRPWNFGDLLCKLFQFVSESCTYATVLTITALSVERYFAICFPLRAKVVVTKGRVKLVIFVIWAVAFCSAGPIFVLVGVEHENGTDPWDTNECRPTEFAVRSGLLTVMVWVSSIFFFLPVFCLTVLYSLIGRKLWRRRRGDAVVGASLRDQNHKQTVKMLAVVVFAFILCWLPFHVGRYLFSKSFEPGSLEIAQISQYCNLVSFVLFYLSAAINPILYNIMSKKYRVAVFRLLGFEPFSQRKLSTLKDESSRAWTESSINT

Compared with `NCCCC[C@@H](NC(=O)[C@H](Cc1ccccc1)NC(=O)[C@@H](Cc1c[nH]c2ccccc12)NC(=O)[C@@H](Cc1csc2ccccc12)NC(=O)[C@H](N)CCCNC(N)=O)C(N)=O` [Compound 31] (H-[dCit][dBta][dW]F[dK]-NH2), `N=C(N)NCCC[C@@H](N)C(=O)N[C@H](Cc1csc2ccccc12)C(=O)N[C@H](Cc1c[nH]c2ccccc12)C(=O)N[C@@H](Cc1ccccc1)C(=O)N[C@H](CCCCN)C(N)=O` [Compound 39] (H-[dR][dBta][dW]F[dK]-NH2) is 13-fold higher in IC50: 20.8 nM for the first, 272 nM for the second.

`NCCCC[C@@H](N)C(=O)N[C@H](Cc1csc2ccccc12)C(=O)N[C@H](Cc1c[nH]c2ccccc12)C(=O)N[C@@H](Cc1ccccc1)C(=O)N[C@H](CCCCN)C(N)=O` [Compound 34] (H-[dK][dBta][dW]F[dK]-NH2) and `NCCCC[C@H](N)C(=O)N[C@H](Cc1csc2ccccc12)C(=O)N[C@H](Cc1c[nH]c2ccccc12)C(=O)N[C@@H](Cc1ccccc1)C(=O)N[C@H](CCCCN)C(N)=O` [Compound 35] (H-K[dBta][dW]F[dK]-NH2) are within 1.5-fold of each other in IC50: 78.4 nM for the first, 102 nM for the second.

First: CC(=O)N[C@H](CCCNC(N)=O)C(=O)N[C@H](Cc1csc2ccccc12)C(=O)N[C@H](Cc1c[nH]c2ccccc12)C(=O)N[C@@H](Cc1ccccc1)C(=O)N[C@H](CCCCN)C(N)=O [Compound 36] (Ac-[dCit][dBta][dW]F[dK]-NH2)
Second: CC(=O)N[C@H](CCCCN)C(=O)N[C@H](Cc1csc2ccccc12)C(=O)N[C@H](Cc1c[nH]c2ccccc12)C(=O)N[C@@H](Cc1ccccc1)C(=O)N[C@H](CCCCN)C(N)=O [Compound 37] (Ac-[dK][dBta][dW]F[dK]-NH2)
The IC50 of the first is 2.4-fold lower: 122 nM for the first, 291 nM for the second. The first is the more potent here.

`CC(=O)N[C@@H](CCCCN)C(=O)N[C@H](Cc1csc2ccccc12)C(=O)N[C@H](Cc1c[nH]c2ccccc12)C(=O)N[C@@H](Cc1ccccc1)C(=O)N[C@H](CCCCN)C(N)=O` [Compound 38] (Ac-K[dBta][dW]F[dK]-NH2) and `CC(=O)NCCCC[C@@H](N)C(=O)N[C@H](Cc1csc2ccccc12)C(=O)N[C@H](Cc1c[nH]c2ccccc12)C(=O)N[C@@H](Cc1ccccc1)C(=O)N[C@H](CCCCN)C(N)=O` [Compound 40] (H-[dK](Ac)[dBta][dW]F[dK]-NH2) are within 1.5-fold of each other in IC50: 400 nM for the first, 510 nM for the second.

`NCCCC[C@@H](NC(=O)[C@H](Cc1ccccc1)NC(=O)[C@@H](Cc1c[nH]c2ccccc12)NC(=O)[C@@H](Cc1csc2ccccc12)NC(=O)CN)C(N)=O` [Compound 41] (H-G[dBta][dW]F[dK]-NH2) and `C[C@@H](N)C(=O)N[C@H](Cc1csc2ccccc12)C(=O)N[C@H](Cc1c[nH]c2ccccc12)C(=O)N[C@@H](Cc1ccccc1)C(=O)N[C@H](CCCCN)C(N)=O` [Compound 42] (H-[dA][dBta][dW]F[dK]-NH2) are within 1.5-fold of each other in IC50: 31.4 nM for the first, 40.1 nM for the second.

First: CC(C)[C@@H](N)C(=O)N[C@H](Cc1csc2ccccc12)C(=O)N[C@H](Cc1c[nH]c2ccccc12)C(=O)N[C@@H](Cc1ccccc1)C(=O)N[C@H](CCCCN)C(N)=O [Compound 43] (H-[dV][dBta][dW]F[dK]-NH2)
Second: CC(C)C[C@@H](N)C(=O)N[C@H](Cc1csc2ccccc12)C(=O)N[C@H](Cc1c[nH]c2ccccc12)C(=O)N[C@@H](Cc1ccccc1)C(=O)N[C@H](CCCCN)C(N)=O [Compound 44] (H-[dL][dBta][dW]F[dK]-NH2)
The IC50 of the first is 1.7-fold higher: 22.3 nM for the first, 13.5 nM for the second. The second is the more potent here.

`CCCC[C@@H](N)C(=O)N[C@H](Cc1csc2ccccc12)C(=O)N[C@H](Cc1c[nH]c2ccccc12)C(=O)N[C@@H](Cc1ccccc1)C(=O)N[C@H](CCCCN)C(N)=O` [Compound 49] (H-[dNle][dBta][dW]F[dK]-NH2) and `CCCC[C@H](N)C(=O)N[C@H](Cc1csc2ccccc12)C(=O)N[C@H](Cc1c[nH]c2ccccc12)C(=O)N[C@@H](Cc1ccccc1)C(=O)N[C@H](CCCCN)C(N)=O` [Compound 50] (H-[Nle][dBta][dW]F[dK]-NH2) are within 1.5-fold of each other in IC50: 59.4 nM for the first, 67.2 nM for the second.

First: NCCCC[C@@H](NC(=O)[C@H](Cc1ccccc1)NC(=O)[C@@H](Cc1c[nH]c2ccccc12)NC(=O)[C@@H](Cc1csc2ccccc12)NC(=O)[C@H]1CCN1)C(N)=O [Compound 55] (H-[dAze][dBta][dW]F[dK]-NH2)
Second: N=C(N)NCCC[C@@H](NC(=O)[C@H](Cc1ccccc1)NC(=O)[C@@H](Cc1c[nH]c2ccccc12)NC(=O)[C@@H](Cc1csc2ccccc12)NC(=O)[C@H]1CCN1)C(N)=O [Compound 65] (H-[dAze][dBta][dW]F[dR]-NH2)
The IC50 of the first is 1.7-fold lower: 20 nM for the first, 34.3 nM for the second. The first is the more potent here.

First: NCCCC[C@@H](NC(=O)[C@H](Cc1ccccc1)NC(=O)[C@@H](Cc1c[nH]c2ccccc12)NC(=O)[C@@H](Cc1csc2ccccc12)NC(=O)[C@H]1CNCCO1)C(N)=O [Compound 57] (X4-[dBta][dW]F[dK]-NH2)
Second: N=C(N)NCCC[C@@H](NC(=O)[C@H](Cc1ccccc1)NC(=O)[C@@H](Cc1c[nH]c2ccccc12)NC(=O)[C@@H](Cc1csc2ccccc12)NC(=O)[C@H]1CNCCO1)C(N)=O [Compound 67] (X4-[dBta][dW]F[dR]-NH2)
The IC50 of the first is 1.7-fold lower: 13.4 nM for the first, 23.3 nM for the second.

First: NCCCC[C@@H](NC(=O)[C@H](Cc1ccccc1)NC(=O)[C@@H](Cc1c[nH]c2ccccc12)NC(=O)[C@@H](Cc1csc2ccccc12)NC(=O)CC12CC3CC(CC(N)(C3)C1)C2)C(N)=O [Compound 58] (X5-[dBta][dW]F[dK]-NH2)
Second: N=C(N)NCCC[C@@H](NC(=O)[C@H](Cc1ccccc1)NC(=O)[C@@H](Cc1c[nH]c2ccccc12)NC(=O)[C@@H](Cc1csc2ccccc12)NC(=O)CC12CC3CC(CC(N)(C3)C1)C2)C(N)=O [Compound 68] (X5-[dBta][dW]F[dR]-NH2)
The IC50 of the first is 3.2-fold lower: 104 nM for the first, 330 nM for the second. The first is the more potent here.

Going from `NCCCC[C@@H](NC(=O)[C@H](Cc1ccccc1)NC(=O)[C@@H](Cc1c[nH]c2ccccc12)NC(=O)[C@@H](Cc1csc2ccccc12)NC(=O)C1N[C@@H]2CC[C@H]1C2)C(N)=O` (some centres unmarked) [Compound 59] (H-[X6][dBta][dW]F[dK]-NH2) to `N=C(N)NCCC[C@@H](NC(=O)[C@H](Cc1ccccc1)NC(=O)[C@@H](Cc1c[nH]c2ccccc12)NC(=O)[C@@H](Cc1csc2ccccc12)NC(=O)C1N[C@@H]2CC[C@H]1C2)C(N)=O` (some centres unmarked) [Compound 69] (H-[X6][dBta][dW]F[dR]-NH2), the IC50 rises from 16.8 nM to 40.2 nM (2.4-fold). The first is the more potent here.

First: NCCCC[C@@H](NC(=O)[C@H](Cc1ccccc1)NC(=O)[C@@H](Cc1c[nH]c2ccccc12)NC(=O)[C@@H](Cc1csc2ccccc12)NC(=O)[C@@]12CNC[C@@H]1C2)C(N)=O [Compound 60] (X7-[dBta][dW]F[dK]-NH2)
Second: N=C(N)NCCC[C@@H](NC(=O)[C@H](Cc1ccccc1)NC(=O)[C@@H](Cc1c[nH]c2ccccc12)NC(=O)[C@@H](Cc1csc2ccccc12)NC(=O)[C@@]12CNC[C@@H]1C2)C(N)=O [Compound 70] (X7-[dBta][dW]F[dR]-NH2)
The IC50 of the first is 1.8-fold lower: 22.4 nM for the first, 39.7 nM for the second. The first is the more potent here.

Going from `N=C(N)NCCC[C@@H](NC(=O)[C@H](Cc1ccccc1)NC(=O)[C@@H](Cc1c[nH]c2ccccc12)NC(=O)[C@@H](Cc1csc2ccccc12)NC(=O)[C@@H]1CCC[C@@H]1N)C(N)=O` [Compound 61] (X1-[dBta][dW]F[dR]-NH2) to `N=C(N)NCCC[C@@H](NC(=O)[C@H](Cc1ccccc1)NC(=O)[C@@H](Cc1c[nH]c2ccccc12)NC(=O)[C@@H](Cc1csc2ccccc12)NC(=O)[C@H]1CCNC1)C(N)=O` [Compound 66] ({Pyrrolidine3carbonyl(3S)}-[dBta][dW]F[dR]-NH2), the IC50 falls from 20.5 nM to 12 nM (1.7-fold). The second is the more potent here.

`N=C(N)NCCC[C@@H](NC(=O)[C@H](Cc1ccccc1)NC(=O)[C@@H](Cc1c[nH]c2ccccc12)NC(=O)[C@@H](Cc1csc2ccccc12)NC(=O)C1(CN)CCC1)C(N)=O` [Compound 62] (X3-[dBta][dW]F[dR]-NH2) and `N=C(N)NCCC[C@@H](NC(=O)[C@H](Cc1ccccc1)NC(=O)[C@@H](Cc1c[nH]c2ccccc12)NC(=O)[C@@H](Cc1csc2ccccc12)NC(=O)C1(N)COC1)C(N)=O` [Compound 64] (H-[Ac4c(3-oxa)][dBta][dW]F[dR]-NH2) are within 1.5-fold of each other in IC50: 30.3 nM for the first, 38.1 nM for the second.

With `N=C(N)NCCC[C@@H](NC(=O)[C@H](Cc1ccccc1)NC(=O)[C@@H](Cc1c[nH]c2ccccc12)NC(=O)[C@@H](Cc1csc2ccccc12)NC(=O)C1CNC1)C(N)=O` [Compound 63] (Azetidine3carboxylic-[dBta][dW]F[dR]-NH2) the IC50 was 27 nM.

— patent US20240158438A1, “POLYPEPTIDE COMPOUND AND APPLICATION THEREOF” (CHENGDU SINTANOVO BIOTECHNOLOGY CO., LTD., priority 2021, published 2024)
